In patent US6133279A, “Therapeutic agents for renal diseases and organ preservatives” (Chugai Seiyaku Kabushiki Kaisha, priority 1996, dated 2000):
Where two headings read alike, the source gives them in different places.

Legend:
[1] = tested on: murine mesangial derived MES13 cells; assay: Protective effect against oxidized LDL-induced injury of murine mesangial cells (in vitro); assay type: cell-based; conditions: Mus musculus, MES13, 10 h, mean ± standard deviation, read-out: Cytoprotection rate (%)
Procedure: For the purpose of evaluating in vitro cytoprotective effect of the compounds of the present invention on mesangial cells, a cytoprotective study was performed using murine mesangial derived MES13 cells (ATCC-CRL-1927) injured by oxidized LDL.
Oxidized LDL was prepared in the same manner as in Test example 1. Cell culture was carried out by plating 2.5×10^4 cells/250 μl/well on a 48-well plate using FBS-free medium (mixture of DME medium and F12 medium in a ratio of 3:1). Test compounds were dissolved or suspended in ethanol and added to the wells in an amount of 1.25 μl/well to a concentration of 1 or 10 μM in each well. After 16 hours or immediately after the addition of the compounds, oxidized LDL was added to cells in an amount of 25 μl/well to a concentration of 91 μg/ml and the cells were cultured for 10 hours after addition of the oxidized LDL. Then, 150 μl/well of the culture medium were collected and measured for the lactate dehydrogenase level (LDL: SIGMA DIAGNOSTICS) having leaked in the medium.
The magnitude of cytoprotective effect was expressed as the cytoprotection rate which was determined by calculating the data assuming that the magnitude in wells containing oxidized LDL is 0% and that the magnitude in containing saline is 100%.

[2] = tested on: porcine kidney-derived LLC-PK1 cells; assay: Protective effect against oxidized LDL-induced injury of porcine kidney-derived LLC-PK1 cells (2); assay type: cell-based; conditions: Sus scrofa, LLC-PK1, 6 h, mean ± standard deviation, read-out: Cytoprotection rate (%)
Procedure: For the purpose of evaluating in vitro cytoprotective effect of the compounds of the present invention, a cytoprotective study was performed using porcine kidney-derived LLC-PK1 cells (ATCC-CRL-13921) injured by oxidized low-density lipoprotein (oxidized LDL) in the same manner as in Test example 1 with the exception of some points.
Preparation of oxidized LDL and the conditions for cell culture and addition of test compounds were the same as in Test example 1. However, oxidized LDL was not diluted with saline and added to cells in an amount of 25 μl/well to a concentration of 91 μg/ml and the cells were cultured for 6 hours after addition of the oxidized LDL. Then, 150 μl/well of the culture medium were collected and measured for the lactate dehydrogenase (LDH) level (LD-L: SIGMA DIAGNOSTICS) having leaked in the medium.

[3] = compound added 16 hours before adding oxidized LDL
[4] = compound added immediately before adding oxidized LDL

Compound	inhibition at 1 µM [1, 3] [%]	inhibition at 1 µM [1, 4] [%]	inhibition at 10 µM [1, 3] [%]	inhibition at 10 µM [1, 4] [%]	inhibition at 0.1 µM [2, 3] [%]	inhibition at 0.1 µM [2, 4] [%]	inhibition at 1 µM [2, 3] [%]	inhibition at 1 µM [2, 4] [%]	inhibition at 10 µM [2, 3] [%]	inhibition at 10 µM [2, 4] [%]
CC(C)(C)c1cc2c(c(C(C)(C)C)c1O)CC1(CCCCCCC1)O2 [Example 21, 4,6-Di-t-butyl-5-hydroxy-2,3-dihydrobenzofuran-2-spiro-1'-cyclooctane]	-7.5 ± 4.2	-1.5 ± 1.2	-7 ± 3.4	11.9 ± 4.8	15.6 ± 3.6	2.5 ± 2.5	13.7 ± 13.4	6.1	16 ± 2.6	14.4 ± 3.9
CC1(C(=O)N2CCCC2)Cc2c(cc(C(C)(C)C)c(O)c2C(C)(C)C)O1 (stereo not drawn) [Example 74, 1-(4,6-Di-t-butyl-5-hydroxy-2-methyl-2,3-dihydrobenzofuran-2-carbonyl)pyrrolidine]	-10.2 ± 1.4	18.7 ± 2.8	24.5 ± 3.3	73 ± 0.3	25.2 ± 3.3	10.1 ± 2.3	54.8 ± 3.8	72.7	103.6 ± 0.5	103.5 ± 0.6
CC1(COc2ccc(CNNC(=N)N)cc2)Cc2c(cc(C(C)(C)C)c(O)c2C(C)(C)C)O1 (stereo not drawn) [Example 86, 1-{4-[(4,6-Di-t-butyl-5-hydroxy-2-methyl-2,3-dihydrobenzofuran-2-yl)methoxy]benzylamino}guanidine]	-1 ± 11.2	19.8 ± 7	-4.3 ± 1.9	78.7 ± 0.7	-0.4 ± 1.9	-0.7 ± 2.3	3.6 ± 5.8	0.2	40 ± 2.2	102.5 ± 0.5
CC1(CNC(=N)NN)Cc2c(cc(C(C)(C)C)c(O)c2C(C)(C)C)O1 (stereo not drawn) [Example 81, 1-Amino-3-[(4,6-di-t-butyl-5-hydroxy-2-methyl-2,3-dihydrobenzofuran-2-yl)methyl]guanidine]	-3.9 ± 1.5	3.9 ± 2.2	7.3 ± 7.2	73.4 ± 3.3	6.9 ± 3.1	8.8 ± 1.6	4.2 ± 5.1	37.8	101.1 ± 0.1	101.3 ± 0.1
CC(C)(C)c1cc2c(c(C(C)(C)C)c1O)CC1(CCOCC1)S2 [Example 69, 4,6-Di-t-butyl-5-hydroxy-2,3-dihydrobenzothiophene-2-spiro-4'-tetrahydropyran]	4.2 ± 6.3	15.6 ± 4	54.8 ± 9.3	89.8 ± 0.8	1 ± 4.7	4.5 ± 2.1	24.6 ± 12.8	42.5	100.4 ± 0.5	101.6 ± 0.7
CCOC(=O)/C=C/C1(C)Cc2c(cc(C(C)(C)C)c(O)c2C(C)(C)C)O1 (stereo not drawn) [Example 75, Ethyl 3-(4,6-di-t-butyl-5-hydroxy-2-methyl-2,3-dihydrobenzofuran-2-yl)-2-propenoate]	-8 ± 2	32.3 ± 2.4	64.5 ± 6.4	79 ± 1.8	4.9 ± 2.7	-4.9 ± 1.8	26.6 ± 7	51.8	99.8 ± 0.9	98.7 ± 0.4
CC1(CO)Cc2c(cc(C(C)(C)C)c(O)c2C(C)(C)C)S1 (stereo not drawn) [Example 63, 4,6-Di-t-butyl-5-hydroxy-2-hydroxymethyl-2-methyl-2,3-dihydrobenzothiophene]	–	–	–	–	4.2 ± 4.4	5.9 ± 1.7	95.3 ± 3.6	97.3	100.2 ± 0.4	101.1 ± 0.2
CN(C)CC1(C)Cc2c(cc(C(C)(C)C)c(O)c2C(C)(C)C)S1 (stereo not drawn) [Example 61, 4,6-Di-t-butyl-5-hydroxy-2-(N,N-dimethylaminomethyl)-2-methyl-2,3-dihydrobenzothiophene]	–	–	–	–	5 ± 1.2	5.1 ± 1.5	85.7 ± 8.1	97.6	101.3 ± 0.6	101.7 ± 0.5
